Assay results from ChEMBL document CHEMBL1806380, “Rigidized 1-aryl sulfonyl tryptamines: synthesis and pharmacological evaluation as 5-HT6 receptor ligands” (Bioorg Med Chem Lett, 2011).

How the values were obtained:
[1] = molecular target: 5-hydroxytryptamine receptor 6 (Homo sapiens) (UniProt P50406); experiment: Binding affinity to human recombinant 5HT6 receptor expressed in CHO cells co-expressing pCRE-Luc gene assessed as modulation of serotonin-induced intracellular cAMP level after 4 hrs by luciferase based luminescence assay; type: cell-based
Sequence of 5-hydroxytryptamine receptor 6 (Homo sapiens) (P50406 whole entry): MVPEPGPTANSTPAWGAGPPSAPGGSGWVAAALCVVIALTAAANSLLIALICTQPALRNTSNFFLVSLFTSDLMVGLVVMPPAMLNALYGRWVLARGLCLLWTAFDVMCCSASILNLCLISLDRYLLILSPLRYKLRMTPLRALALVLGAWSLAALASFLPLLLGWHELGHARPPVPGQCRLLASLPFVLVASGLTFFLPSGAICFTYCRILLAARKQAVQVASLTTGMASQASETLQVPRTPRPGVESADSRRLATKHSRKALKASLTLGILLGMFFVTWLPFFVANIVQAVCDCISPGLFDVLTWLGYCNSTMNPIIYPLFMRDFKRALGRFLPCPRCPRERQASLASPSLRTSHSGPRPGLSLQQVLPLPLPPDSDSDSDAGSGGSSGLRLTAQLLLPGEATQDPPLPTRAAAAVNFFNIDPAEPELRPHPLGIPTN

[2] = molecular target: 5-hydroxytryptamine receptor 7 (Rattus norvegicus) (UniProt P32305); experiment: Binding affinity to rat 5HT7 receptor expressed in CHO cells co-expressing pCRE-Luc gene assessed as modulation of serotonin-induced intracellular cAMP level at 0.5 uM after 5 hrs by luciferase based luminescence assay; type: cell-based
Sequence of 5-hydroxytryptamine receptor 7 (Rattus norvegicus) (P32305 whole entry): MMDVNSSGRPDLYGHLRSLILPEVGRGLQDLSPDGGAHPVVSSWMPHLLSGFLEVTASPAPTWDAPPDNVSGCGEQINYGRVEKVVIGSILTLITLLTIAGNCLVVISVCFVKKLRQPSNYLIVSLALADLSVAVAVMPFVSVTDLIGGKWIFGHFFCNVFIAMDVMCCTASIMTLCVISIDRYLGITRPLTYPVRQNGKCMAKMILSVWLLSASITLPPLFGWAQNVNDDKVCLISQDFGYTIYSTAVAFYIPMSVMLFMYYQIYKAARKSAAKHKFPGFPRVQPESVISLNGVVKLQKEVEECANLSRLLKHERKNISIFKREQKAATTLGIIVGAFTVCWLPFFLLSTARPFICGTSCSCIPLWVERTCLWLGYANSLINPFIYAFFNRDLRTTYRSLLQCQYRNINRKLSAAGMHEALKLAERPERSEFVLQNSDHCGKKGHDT

[3] = molecular target: 5-hydroxytryptamine receptor 4 (Homo sapiens) (UniProt Q13639); experiment: Binding affinity to human recombinant 5HT4 receptor expressed in CHO cells co-expressing pCRE-Luc gene assessed as modulation of serotonin-induced intracellular cAMP level at 0.5 uM after 5 hrs by luciferase based luminescence assay; type: cell-based
Sequence of 5-hydroxytryptamine receptor 4 (Homo sapiens) (Q13639 whole entry): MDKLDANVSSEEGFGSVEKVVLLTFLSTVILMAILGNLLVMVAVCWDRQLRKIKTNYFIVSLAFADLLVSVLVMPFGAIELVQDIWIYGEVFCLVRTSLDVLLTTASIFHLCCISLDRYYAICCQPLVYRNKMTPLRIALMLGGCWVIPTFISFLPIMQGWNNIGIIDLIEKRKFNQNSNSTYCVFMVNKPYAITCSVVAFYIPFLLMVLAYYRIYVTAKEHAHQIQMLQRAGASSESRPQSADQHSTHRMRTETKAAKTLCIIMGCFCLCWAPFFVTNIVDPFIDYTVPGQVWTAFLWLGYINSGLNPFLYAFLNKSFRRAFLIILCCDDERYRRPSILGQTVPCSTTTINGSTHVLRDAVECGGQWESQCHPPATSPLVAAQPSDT

[4] = molecular target: 5-hydroxytryptamine receptor 2A (Homo sapiens) (UniProt P28223); experiment: Inhibition of 5HT2A receptor at 0.5 uM
Sequence of 5-hydroxytryptamine receptor 2A (Homo sapiens) (P28223 whole entry): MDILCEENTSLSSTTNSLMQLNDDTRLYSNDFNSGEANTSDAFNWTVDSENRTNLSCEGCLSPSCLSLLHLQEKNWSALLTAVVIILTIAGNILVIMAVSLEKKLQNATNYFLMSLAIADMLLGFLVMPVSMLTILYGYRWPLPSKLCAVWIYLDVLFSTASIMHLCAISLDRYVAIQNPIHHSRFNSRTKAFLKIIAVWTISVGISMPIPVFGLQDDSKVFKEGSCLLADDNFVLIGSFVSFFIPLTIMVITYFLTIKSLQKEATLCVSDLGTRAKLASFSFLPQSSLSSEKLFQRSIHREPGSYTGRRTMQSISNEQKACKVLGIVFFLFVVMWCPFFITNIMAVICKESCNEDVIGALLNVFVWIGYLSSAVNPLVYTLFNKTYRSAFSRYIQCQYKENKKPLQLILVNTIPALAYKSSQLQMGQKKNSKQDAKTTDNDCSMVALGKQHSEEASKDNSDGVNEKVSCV

[5] = molecular target: Sodium-dependent dopamine transporter (Homo sapiens) (UniProt Q01959); experiment: Inhibition of DAT at 0.5 uM
Sequence of Sodium-dependent dopamine transporter (Homo sapiens) (Q01959 whole entry): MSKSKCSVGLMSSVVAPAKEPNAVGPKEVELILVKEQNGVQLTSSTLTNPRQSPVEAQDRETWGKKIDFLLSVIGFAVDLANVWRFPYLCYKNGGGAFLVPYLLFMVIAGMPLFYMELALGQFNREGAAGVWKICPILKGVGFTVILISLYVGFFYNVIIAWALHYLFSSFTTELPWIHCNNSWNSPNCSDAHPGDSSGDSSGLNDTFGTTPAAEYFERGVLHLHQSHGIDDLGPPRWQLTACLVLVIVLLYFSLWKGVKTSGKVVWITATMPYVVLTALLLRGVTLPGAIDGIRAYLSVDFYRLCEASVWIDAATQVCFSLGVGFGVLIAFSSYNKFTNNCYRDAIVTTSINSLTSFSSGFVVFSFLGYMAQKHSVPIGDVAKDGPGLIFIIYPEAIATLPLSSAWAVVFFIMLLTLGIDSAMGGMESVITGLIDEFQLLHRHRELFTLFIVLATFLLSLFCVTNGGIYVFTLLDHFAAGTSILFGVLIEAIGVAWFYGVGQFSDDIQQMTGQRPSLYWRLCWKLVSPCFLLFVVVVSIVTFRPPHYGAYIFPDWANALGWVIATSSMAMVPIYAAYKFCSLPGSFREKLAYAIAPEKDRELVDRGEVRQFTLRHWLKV

[6] = molecular target: Histamine H1 receptor (Homo sapiens) (UniProt P35367); experiment: Inhibition of histamine H1 receptor at 0.5 uM
Sequence of Histamine H1 receptor (Homo sapiens) (P35367 whole entry): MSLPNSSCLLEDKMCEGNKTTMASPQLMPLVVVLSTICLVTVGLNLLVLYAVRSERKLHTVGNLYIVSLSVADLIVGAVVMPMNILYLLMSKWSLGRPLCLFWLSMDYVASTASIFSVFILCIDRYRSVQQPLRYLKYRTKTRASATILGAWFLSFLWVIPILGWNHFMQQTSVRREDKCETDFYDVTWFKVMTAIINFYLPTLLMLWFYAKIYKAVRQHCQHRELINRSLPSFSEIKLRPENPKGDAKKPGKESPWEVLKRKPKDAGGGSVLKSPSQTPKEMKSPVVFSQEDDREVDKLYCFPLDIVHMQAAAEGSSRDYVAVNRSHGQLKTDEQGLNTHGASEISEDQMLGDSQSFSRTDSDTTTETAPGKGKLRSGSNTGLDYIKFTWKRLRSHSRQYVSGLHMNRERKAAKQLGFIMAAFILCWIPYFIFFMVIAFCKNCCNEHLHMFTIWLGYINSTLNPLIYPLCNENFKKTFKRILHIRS

[7] = molecular target: Sodium-dependent serotonin transporter (Homo sapiens) (UniProt P31645); experiment: Inhibition of SERT at 0.5 uM
Sequence of Sodium-dependent serotonin transporter (Homo sapiens) (P31645 whole entry, looked up): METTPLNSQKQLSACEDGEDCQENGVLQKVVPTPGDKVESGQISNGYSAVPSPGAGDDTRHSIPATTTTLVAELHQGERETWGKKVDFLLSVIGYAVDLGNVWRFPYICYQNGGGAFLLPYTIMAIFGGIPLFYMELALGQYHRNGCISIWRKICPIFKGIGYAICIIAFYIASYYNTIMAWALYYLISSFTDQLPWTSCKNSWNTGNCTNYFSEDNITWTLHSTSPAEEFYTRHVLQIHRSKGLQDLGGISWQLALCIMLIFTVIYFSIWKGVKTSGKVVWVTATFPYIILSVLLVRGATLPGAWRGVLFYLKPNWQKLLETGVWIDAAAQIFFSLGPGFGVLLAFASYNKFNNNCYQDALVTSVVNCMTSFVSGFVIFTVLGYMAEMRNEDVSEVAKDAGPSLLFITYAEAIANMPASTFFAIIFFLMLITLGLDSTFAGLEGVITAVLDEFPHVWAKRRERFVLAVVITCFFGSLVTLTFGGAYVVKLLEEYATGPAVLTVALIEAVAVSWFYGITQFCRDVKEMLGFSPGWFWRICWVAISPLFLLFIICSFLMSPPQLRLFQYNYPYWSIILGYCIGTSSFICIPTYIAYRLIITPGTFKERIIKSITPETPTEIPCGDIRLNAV

[8] = molecular target: Sodium-dependent noradrenaline transporter (Homo sapiens) (UniProt P23975); experiment: Inhibition of NET at 0.5 uM
Sequence of Sodium-dependent noradrenaline transporter (Homo sapiens) (P23975 whole entry): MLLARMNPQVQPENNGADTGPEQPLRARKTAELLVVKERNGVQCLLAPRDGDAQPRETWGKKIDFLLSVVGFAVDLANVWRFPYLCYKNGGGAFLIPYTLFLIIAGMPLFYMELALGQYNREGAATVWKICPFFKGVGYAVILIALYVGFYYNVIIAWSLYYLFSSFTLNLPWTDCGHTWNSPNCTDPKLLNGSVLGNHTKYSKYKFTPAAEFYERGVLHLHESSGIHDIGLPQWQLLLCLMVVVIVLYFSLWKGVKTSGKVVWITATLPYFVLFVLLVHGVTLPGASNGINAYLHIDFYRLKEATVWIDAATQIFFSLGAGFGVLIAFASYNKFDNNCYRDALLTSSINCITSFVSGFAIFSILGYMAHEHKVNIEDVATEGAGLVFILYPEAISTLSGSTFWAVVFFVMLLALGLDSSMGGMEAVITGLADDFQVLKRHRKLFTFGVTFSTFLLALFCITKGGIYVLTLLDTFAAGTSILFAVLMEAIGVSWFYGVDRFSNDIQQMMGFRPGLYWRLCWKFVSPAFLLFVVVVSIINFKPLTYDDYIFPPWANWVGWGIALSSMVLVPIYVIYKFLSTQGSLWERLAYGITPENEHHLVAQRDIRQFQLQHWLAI

[9] = molecular target: T1, Muscarinic acetylcholine receptor M1 (Homo sapiens) (UniProt P11229); experiment: Binding affinity to human muscarinic M1 receptor expressed in CHO cells co-expressing pCRE-Luc gene assessed as modulation of acetylcholine-induced intracellular cAMP level at 0.5 uM after 5 hrs by luciferase based luminescence assay; type: cell-based
T1 sequence (whole entry): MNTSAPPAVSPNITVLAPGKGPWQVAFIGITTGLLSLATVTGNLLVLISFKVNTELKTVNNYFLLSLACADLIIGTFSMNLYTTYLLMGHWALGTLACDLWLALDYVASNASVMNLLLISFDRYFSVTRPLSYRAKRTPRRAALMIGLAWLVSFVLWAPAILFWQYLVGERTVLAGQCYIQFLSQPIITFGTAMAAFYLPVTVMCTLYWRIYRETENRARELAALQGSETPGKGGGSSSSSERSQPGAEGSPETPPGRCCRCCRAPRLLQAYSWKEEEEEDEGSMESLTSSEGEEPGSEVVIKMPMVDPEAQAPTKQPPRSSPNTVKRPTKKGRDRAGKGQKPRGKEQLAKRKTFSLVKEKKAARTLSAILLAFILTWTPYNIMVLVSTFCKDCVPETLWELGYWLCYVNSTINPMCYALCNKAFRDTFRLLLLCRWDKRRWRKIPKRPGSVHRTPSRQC

[10] = molecular target: T2, Alpha-1B adrenergic receptor (Homo sapiens) (UniProt P35368); experiment: Inhibition of adrenergic alpha1b receptor at 0.5 uM
T2 sequence (whole entry): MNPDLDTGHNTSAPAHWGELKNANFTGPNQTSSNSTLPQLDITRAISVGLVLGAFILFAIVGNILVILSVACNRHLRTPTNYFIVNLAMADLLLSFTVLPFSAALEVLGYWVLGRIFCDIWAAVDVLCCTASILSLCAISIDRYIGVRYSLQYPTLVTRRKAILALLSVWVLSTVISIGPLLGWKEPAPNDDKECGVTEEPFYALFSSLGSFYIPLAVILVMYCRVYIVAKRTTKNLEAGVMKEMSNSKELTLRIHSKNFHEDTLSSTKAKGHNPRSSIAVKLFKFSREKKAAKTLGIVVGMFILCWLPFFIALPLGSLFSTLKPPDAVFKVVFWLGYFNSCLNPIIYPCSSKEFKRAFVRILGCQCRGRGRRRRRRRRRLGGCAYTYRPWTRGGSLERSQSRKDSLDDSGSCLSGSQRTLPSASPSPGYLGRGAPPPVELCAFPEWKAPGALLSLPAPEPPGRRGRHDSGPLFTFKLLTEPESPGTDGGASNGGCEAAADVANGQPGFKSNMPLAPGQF

[11] = molecular target: D(2) dopamine receptor (Homo sapiens) (UniProt P14416); experiment: Inhibition of dopamine D2 receptor at 0.5 uM
Sequence of D(2) dopamine receptor (Homo sapiens) (P14416 whole entry): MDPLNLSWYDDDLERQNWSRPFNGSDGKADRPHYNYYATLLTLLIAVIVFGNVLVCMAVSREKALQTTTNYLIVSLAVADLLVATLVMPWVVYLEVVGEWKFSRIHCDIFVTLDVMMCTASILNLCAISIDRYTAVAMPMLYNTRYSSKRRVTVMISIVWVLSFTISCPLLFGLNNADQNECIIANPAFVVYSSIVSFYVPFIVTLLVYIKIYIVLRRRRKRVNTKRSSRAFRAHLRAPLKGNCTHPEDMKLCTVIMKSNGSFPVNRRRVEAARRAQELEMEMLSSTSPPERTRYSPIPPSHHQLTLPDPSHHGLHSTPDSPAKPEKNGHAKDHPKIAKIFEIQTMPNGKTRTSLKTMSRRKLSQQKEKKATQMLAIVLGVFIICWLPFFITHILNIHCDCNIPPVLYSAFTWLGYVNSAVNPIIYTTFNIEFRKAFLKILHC

[12] = molecular target: T3, 5-hydroxytryptamine receptor 2C (Homo sapiens) (UniProt P28335); experiment: Inhibition of 5HT2C receptor at 0.5 uM
T3 sequence (whole entry): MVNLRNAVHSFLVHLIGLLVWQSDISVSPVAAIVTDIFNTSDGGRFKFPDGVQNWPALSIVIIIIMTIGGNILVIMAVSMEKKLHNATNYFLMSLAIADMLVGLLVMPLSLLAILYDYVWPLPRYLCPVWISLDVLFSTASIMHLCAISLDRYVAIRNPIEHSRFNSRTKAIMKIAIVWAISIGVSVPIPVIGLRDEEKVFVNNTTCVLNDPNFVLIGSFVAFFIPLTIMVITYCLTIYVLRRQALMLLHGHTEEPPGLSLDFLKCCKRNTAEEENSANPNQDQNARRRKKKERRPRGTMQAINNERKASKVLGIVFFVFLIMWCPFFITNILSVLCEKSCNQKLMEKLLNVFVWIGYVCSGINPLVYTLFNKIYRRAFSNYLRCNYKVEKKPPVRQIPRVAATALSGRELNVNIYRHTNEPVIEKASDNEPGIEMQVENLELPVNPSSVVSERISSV

[13] = Metabolic stability in human liver microsomes assessed as drug metabolized level after 30 mins; type: ADME, Microsome; conditions: read-out: Activity
[14] = Metabolic stability in rat liver microsomes assessed as drug metabolized level after 30 mins; type: ADME, Microsome; conditions: read-out: Activity

COc1ccc2c(c1)c(C1=C(Cl)CN(C)C1)cn2S(=O)(=O)c1cccc(Cl)c1
Kb [1]: 0.84 nM

CN1CCC(c2cn(S(=O)(=O)c3ccccc3)c3ccccc23)C1 (racemic)
Kb [1]: 1.52 nM

CCN1CC(Cl)=C(c2cn(S(=O)(=O)c3cccc(Cl)c3)c3ccc(F)cc23)C1
Kb [1]: 6.15 nM

COc1ccc2c(c1)c(C1CCN(C)C1)cn2S(=O)(=O)c1ccccc1 (racemic)
Kb [1]: 0.89 nM

CC(C)Oc1ccc2c(c1)c(C1=C(Cl)CN(C)C1)cn2S(=O)(=O)c1ccccc1
Kb [1]: 0.7 nM

CCN1CCC(c2cn(S(=O)(=O)c3ccccc3Br)c3ccc(OC)cc23)C1 (racemic)
Kb [1]: 1.3 nM

CC(C)Oc1ccc2c(c1)c(C1CCN(C)C1)cn2S(=O)(=O)c1ccccc1Br (racemic)
Kb [1]: 4.15 nM

CCN1CCC(c2cn(S(=O)(=O)c3ccccc3Br)c3ccccc23)C1 (racemic)
Kb [1]: 0.1 nM

CCN1CC(Cl)=C(c2cn(S(=O)(=O)c3ccccc3)c3ccc(OC)cc23)C1
Kb [1]: 0.7 nM

CN1CCC(c2cn(S(=O)(=O)c3ccccc3Br)c3ccccc23)C1 (racemic)
Kb [1]: 0.13 nM

COc1ccc2c(c1)c(C1=C(Cl)CN(C)C1)cn2S(=O)(=O)c1ccccc1Br
inhibition [2]: < 50% | inhibition [3]: < 50% | inhibition [4]: < 50% | inhibition [5]: < 50% | inhibition [6]: < 50% | inhibition [7]: < 50% | inhibition [8]: < 50% | Kb [1]: 0.3 nM | inhibition [9]: < 50% | inhibition [10]: < 50% | inhibition [11]: < 50% | inhibition [12]: < 50%

CCN1CC(Cl)=C(c2cn(S(=O)(=O)c3ccc(F)cc3)c3ccc(OC)cc23)C1
Kb [1]: 8.7 nM

CCOc1ccc2c(c1)c(C1=C(Cl)CN(C)C1)cn2S(=O)(=O)c1ccc(Br)cc1
Kb [1]: 4.45 nM

CCOc1ccc2c(c1)c(C1=C(Cl)CN(C)C1)cn2S(=O)(=O)c1ccc(F)cc1
Kb [1]: 6.16 nM

COc1ccc2c(c1)c(C1=C(Cl)CN(C)C1)cn2S(=O)(=O)c1ccc(C(C)C)cc1
Kb [1]: 0.25 nM

COc1ccc2c(c1)c(C1=C(Cl)CN(C)C1)cn2S(=O)(=O)c1cc(Cl)c(Cl)cc1Cl
Kb [1]: 18.4 nM

COc1ccc2c(c1)c(C1=C(Cl)CN(C)C1)cn2S(=O)(=O)c1ccccc1
inhibition [2]: < 50% | inhibition [3]: < 50% | metabolised at 0.5 h [13]: 97% | inhibition [4]: < 50% | inhibition [5]: < 50% | inhibition [6]: < 50% | inhibition [7]: < 50% | inhibition [8]: < 50% | metabolised at 0.5 h [14]: 96% | Kb [1]: 0.1 nM | inhibition [9]: < 50% | inhibition [10]: < 50% | inhibition [11]: < 50% | inhibition [12]: < 50%

COc1ccc2c(c1)c(C1=C(Cl)CN(C)C1)cn2S(=O)(=O)c1ccc(F)cc1
Kb [1]: 0.63 nM

CCN1CC(Cl)=C(c2cn(S(=O)(=O)c3cccc(Cl)c3)c3ccc(OC)cc23)C1
Kb [1]: 2.4 nM

CCN1CC(Cl)=C(c2cn(S(=O)(=O)c3ccc(Br)cc3)c3ccccc23)C1
Kb [1]: 3.9 nM

CCN1CC(Cl)=C(c2cn(S(=O)(=O)c3ccccc3Br)c3ccccc23)C1
Kb [1]: 1.1 nM

CN1CCC(c2cn(S(=O)(=O)c3ccc(F)cc3)c3ccccc23)C1 (racemic)
Kb [1]: 1 nM

CCOc1ccc2c(c1)c(C1CCN(C)C1)cn2S(=O)(=O)c1ccccc1Br (racemic)
Kb [1]: 0.1 nM

CCOc1ccc2c(c1)c(C1=C(Cl)CN(C)C1)cn2S(=O)(=O)c1ccccc1
Kb [1]: 1 nM

COc1ccc(S(=O)(=O)n2cc(C3=C(Cl)CN(C)C3)c3ccccc32)cc1
Kb [1]: 10 nM

CN1CC(Cl)=C(c2cn(S(=O)(=O)c3ccc(F)cc3)c3ccccc23)C1
inhibition [2]: < 50% | inhibition [3]: < 50% | inhibition [4]: < 50% | inhibition [5]: < 50% | inhibition [6]: < 50% | inhibition [7]: < 50% | inhibition [8]: < 50% | Kb [1]: 0.6 nM | inhibition [9]: < 50% | inhibition [10]: < 50% | inhibition [11]: < 50% | inhibition [12]: < 50%

CN1CC(Cl)=C(c2cn(S(=O)(=O)c3ccccc3Br)c3ccc(F)cc23)C1
Kb [1]: 0.25 nM

CCN1CC(Cl)=C(c2cn(S(=O)(=O)c3cccc(Cl)c3)c3ccccc23)C1
Kb [1]: 12.5 nM

COc1ccc2c(c1)c(C1CCN(C)C1)cn2S(=O)(=O)c1ccccc1Br (racemic)
Kb [1]: 0.13 nM

CCN1CC(Cl)=C(c2cn(S(=O)(=O)c3ccc(F)cc3)c3ccccc23)C1
Kb [1]: 5.8 nM

CCN1CC(Cl)=C(c2cn(S(=O)(=O)c3ccc(Br)cc3)c3ccc(OC)cc23)C1
Kb [1]: 4.75 nM

CN1CC(Cl)=C(c2cn(S(=O)(=O)c3ccccc3)c3ccc(F)cc23)C1
Kb [1]: 0.1 nM

COc1ccc2c(c1)c(CCN(C)C)cn2S(=O)(=O)c1ccccc1
Kb [1]: 5.8 nM

CCN1CC(Cl)=C(c2cn(S(=O)(=O)c3ccc(OC)cc3)c3ccc(OC)cc23)C1
Kb [1]: 14.5 nM

CCOc1ccc2c(c1)c(C1=C(Cl)CN(C)C1)cn2S(=O)(=O)c1ccccc1Br
Kb [1]: 0.4 nM

CN1CC(Cl)=C(c2cn(S(=O)(=O)c3ccc(Br)cc3)c3ccccc23)C1
inhibition [2]: < 50% | inhibition [3]: < 50% | inhibition [4]: < 50% | inhibition [5]: < 50% | inhibition [6]: < 50% | inhibition [7]: < 50% | inhibition [8]: < 50% | Kb [1]: 0.35 nM | inhibition [9]: < 50% | inhibition [10]: < 50% | inhibition [11]: < 50% | inhibition [12]: < 50%

COc1ccc2c(c1)c(C1CCN(C)C1)cn2S(=O)(=O)c1ccc(C(C)C)cc1 (racemic)
Kb [1]: 0.1 nM

CCOc1ccc2c(c1)c(C1=C(Cl)CN(CC)C1)cn2S(=O)(=O)c1ccccc1Br
Kb [1]: 0.45 nM

CC(C)Oc1ccc2c(c1)c(C1=C(Cl)CN(C)C1)cn2S(=O)(=O)c1ccc(F)cc1
Kb [1]: 7.27 nM

COc1ccc2c(c1)c(C1=C(Cl)CN(C)C1)cn2S(=O)(=O)c1ccc(Br)cc1
Kb [1]: 1.78 nM

CCN1CC(Cl)=C(c2cn(S(=O)(=O)c3ccccc3Br)c3ccc(OC)cc23)C1
Kb [1]: 6.15 nM

COc1ccc(S(=O)(=O)n2cc(C3=C(Cl)CN(C)C3)c3cc(OC)ccc32)cc1
inhibition [2]: < 50% | inhibition [3]: < 50% | inhibition [4]: < 50% | inhibition [5]: < 50% | inhibition [6]: < 50% | inhibition [7]: < 50% | inhibition [8]: < 50% | Kb [1]: 1.65 nM | inhibition [9]: < 50% | inhibition [10]: < 50% | inhibition [11]: < 50% | inhibition [12]: < 50%
